Experimental data taken from the OligoGym collection.
Values joined by “and” are separate entries in the source; they are usually repeats but may differ in a detail not shown here. Equal entries are not always repeated. After the bases stand the sugars from the 5' end (letter, count) and the backbone: PS all phosphorothioate, else s phosphorothioate and o phosphodiester by linkage. Methylation of C is not given here. e = 2'-O-(2-methoxyethyl) (MOE); k = constrained ethyl (cEt); d = 2'-deoxy (DNA)

Target: SOD1
Details: ASO

AACTATACAAATCTTCC (sugars e2 k2 d8 k2 e3, PS)
target mRNA inhibition (HepG2, 5 µM): 60%

AACTATACAAATCTTCC (sugars e3 k2 d7 k2 e3, PS)
target mRNA inhibition (HepG2, 3 µM): 28%

AAGATTACAGTGTTTAA (sugars e3 k2 d7 k2 e3, PS)
target mRNA inhibition (HepG2, 3 µM): 34%

AAGGGAATGTTTATTGG (sugars e3 k2 d7 k2 e3, PS)
target mRNA inhibition (HepG2, 3 µM): 2%

AAGTGCCATACAGGGTT (sugars e2 k2 d9 k2 e2, PS)
target mRNA inhibition (HepG2, 5 µM): 21%

AAGTTTAATACCCATCT (sugars e2 k2 d8 k2 e3, PS)
target mRNA inhibition (HepG2, 5 µM): 54%

AAGTTTAATACCCATCT (sugars e2 k2 d9 k2 e2, PS)
target mRNA inhibition (HepG2, 5 µM): 59%

AATAAGTGCCATACAGG (sugars e2 k2 d8 k2 e3, PS)
target mRNA inhibition (HepG2, 5 µM): 40%

AATACCCATCTGTGATTTAA (sugars e5 d10 e5, PS)
target mRNA inhibition (HepG2, 5 µM): 0%

AATAGACACATCGGCCACAC (sugars e5 d10 e5, PS)
target mRNA inhibition (HepG2, 5 µM): 30% and 25%

AATAGCCTCATAATAAG (sugars e2 k2 d8 k2 e3, PS)
target mRNA inhibition (HepG2, 5 µM): 20%

AATCTTCCAAGTGATCATAA (sugars e5 d10 e5, PS)
target mRNA inhibition (HepG2, 5 µM): 4%

AATGTTTATTGGGCGAT (sugars e3 k2 d7 k2 e3, PS)
target mRNA inhibition (HepG2, 3 µM): 30%

AATTACACTTTTAAGATTAC (sugars e5 d10 e5, PS)
target mRNA inhibition (HepG2, 5 µM): 1%

ACACAATTACACTTTTAAGA (sugars e5 d10 e5, PS)
target mRNA inhibition (HepG2, 5 µM): 0%

ACAGCTAGCAGGATAAC (sugars e2 k2 d8 k2 e3, PS)
target mRNA inhibition (HepG2, 0.1875 µM): 11%
target mRNA inhibition (HepG2, 0.75 µM): 64%
target mRNA inhibition (HepG2, 3 µM): 87%
target mRNA inhibition (HepG2, 4 µM): 79%
target mRNA inhibition (HepG2, 12 µM): 95%

ACAGCTAGCAGGATAAC (sugars e2 k2 d9 k2 e2, PS)
target mRNA inhibition (HepG2, 0.1875 µM): 29%
target mRNA inhibition (HepG2, 0.75 µM): 71%
target mRNA inhibition (HepG2, 3 µM): 89%
target mRNA inhibition (HepG2, 4 µM): 83%
target mRNA inhibition (HepG2, 12 µM): 97%

ACAGGTACTTTAAAGCA (sugars e2 k2 d9 k2 e2, PS)
target mRNA inhibition (HepG2, 5 µM): 20%

ACAGTGTTTAATGTTTA (sugars e2 k2 d8 k2 e3, PS)
target mRNA inhibition (HepG2, 0.1875 µM): 39%
target mRNA inhibition (HepG2, 0.75 µM): 69%
target mRNA inhibition (HepG2, 3 µM): 82%
target mRNA inhibition (HepG2, 4 µM): 78%
target mRNA inhibition (HepG2, 5 µM): 83%
target mRNA inhibition (HepG2, 12 µM): 84% and 86%

ACAGTGTTTAATGTTTA (sugars e2 k2 d9 k2 e2, PS)
target mRNA inhibition (HepG2, 0.1875 µM): 40%
target mRNA inhibition (HepG2, 0.75 µM): 67%
target mRNA inhibition (HepG2, 3 µM): 86%
target mRNA inhibition (HepG2, 4 µM): 79%
target mRNA inhibition (HepG2, 5 µM): 84%
target mRNA inhibition (HepG2, 12 µM): 83% and 88%

ACATGGAATCCATGCAG (sugars e3 k2 d7 k2 e3, PS)
target mRNA inhibition (HepG2, 3 µM): 0%

ACCATCTTTGTCAGCAGTCA (sugars e5 d10 e5, PS)
target mRNA inhibition (HepG2, 5 µM): 41% and 30%

ACCCATCTGTGATTTAA (sugars e2 k2 d9 k2 e2, PS)
target mRNA inhibition (HepG2, 5 µM): 44%

ACCTCCGCGCCTCGCCCACT (sugars e5 d10 e5, PS)
target mRNA inhibition (HepG2, 4 µM): 63% and 77%
target mRNA inhibition (HepG2, 12 µM): 92%

ACGCTGCAGGAGACTAC (sugars e3 k2 d7 k2 e3, PS)
target mRNA inhibition (HepG2, 3 µM): 25%

ACTACATCCAAGGGAAT (sugars e2 k2 d8 k2 e3, PS)
target mRNA inhibition (HepG2, 4 µM): 42%

ACTGCAACGGAAACCCCAGA (sugars e5 d10 e5, PS)
target mRNA inhibition (HepG2, 4 µM): 43%

AGACATTTTAACTGAGT (sugars e2 k2 d9 k2 e2, PS)
target mRNA inhibition (HepG2, 5 µM): 53%

AGACCTCCGCGCCTCGCCCA (sugars e5 d10 e5, PS)
target mRNA inhibition (HepG2, 12 µM): 84%

AGATTACAGTGTTTAAT (sugars e3 k2 d7 k2 e3, PS)
target mRNA inhibition (HepG2, 3 µM): 45%

AGCAACTCTGAAAAAGTCAC (sugars e5 d10 e5, PS)
target mRNA inhibition (HepG2, 5 µM): 14%

AGCAGGATAACAGATGA (sugars e3 k2 d7 k2 e3, PS)
target mRNA inhibition (HepG2, 3 µM): 45%

AGCTAGCAGGATAACAG (sugars e2 k2 d8 k2 e3, PS)
target mRNA inhibition (HepG2, 4 µM): 57%

AGCTAGCAGGATAACAG (sugars e3 k2 d7 k2 e3, PS)
target mRNA inhibition (HepG2, 3 µM): 15%

AGGATACATTTCTACAG (sugars e2 k2 d8 k2 e3, PS)
target mRNA inhibition (HepG2, 4 µM): 60%

AGGATACATTTCTACAGC (sugars e5 d8 e5, linkages s1 o3 s9 o2 s2)
target mRNA inhibition (A431, 0.12 µM): 42%
target mRNA inhibition (A431, 0.6 µM): 23%
target mRNA inhibition (A431, 3 µM): 26%
target mRNA inhibition (A431, 15 µM): 45%
target mRNA inhibition (HepG2, 0.222 µM): 9%
target mRNA inhibition (HepG2, 0.667 µM): 43%
target mRNA inhibition (HepG2, 2 µM): 65%
target mRNA inhibition (HepG2, 6 µM): 86%

AGGATACATTTCTACAGCTA (sugars e5 d10 e5, PS)
target mRNA inhibition (HepG2, 0.1875 µM): 29%
target mRNA inhibition (HepG2, 0.75 µM): 47%
target mRNA inhibition (HepG2, 3 µM): 82%
target mRNA inhibition (HepG2, 4 µM): 56%
target mRNA inhibition (HepG2, 5 µM): 79%
target mRNA inhibition (HepG2, 12 µM): 80% and 96%

AGGATTAAAGTGAGGAC (sugars e3 k2 d7 k2 e3, PS)
target mRNA inhibition (HepG2, 3 µM): 23%

AGGTACTTTAAAGCAACTCT (sugars e5 d10 e5, PS)
target mRNA inhibition (HepG2, 5 µM): 36%

AGGTCATTGAAACAGAC (sugars e3 k2 d7 k2 e3, PS)
target mRNA inhibition (HepG2, 3 µM): 21%

AGTGAGGACCTGCACTG (sugars e3 k2 d7 k2 e3, PS)
target mRNA inhibition (HepG2, 3 µM): 21%
